Results as given in ChEMBL document CHEMBL1141046, “Design, synthesis and structure-activity relationship of a series of fragment analogues of antistasin (ATS) and ghilantens (GLS)” (Bioorg Med Chem Lett, 2005).
One block for each compound: values may come before it. Square brackets hold non-standard residues; d marks the D form. Peptide text beside a SMILES is read from it. Orn = NCCC[C@H](N)C(=O)O

How the values were obtained:
[1] = Concentration for doublingAPTT clotting times of human plasma; type: functional, cell-free
[2] = Anticoagulant activity of compound in respect to APTT in human poor platelet plasma (PPP) at 290 nM concentration was measured by the Amelung coagulometer KC4A apparatus; type: functional
[3] = Anticoagulant activity of compound in respect to APTT in human poor platelet plasma (PPP) at 894 nM concentration was measured by the Amelung coagulometer KC4A apparatus; type: functional
[4] = Anticoagulant activity of compound in respect to APTT in human poor platelet plasma (PPP) at 1192 nM concentration was measured by the Amelung coagulometer KC4A apparatus; type: functional
[5] = Anticoagulant activity of compound in respect to APTT in human poor platelet plasma (PPP) at 1043.42 nM concentration was measured by the Amelung coagulometer KC4A apparatus; type: functional
[6] = Anticoagulant activity of compound in respect to APTT in human poor platelet plasma (PPP) at 2235.9 nM concentration was measured by the Amelung coagulometer KC4A apparatus; type: functional
[7] = Anticoagulant activity of compound in respect to APTT in human poor platelet plasma (PPP) at 1117.95 nM concentration was measured by the Amelung coagulometer KC4A apparatus; type: functional
[8] = Anticoagulant activity of compound in respect to APTT in human poor platelet plasma (PPP) at 211 nM concentration was measured by the Amelung coagulometer KC4A apparatus; type: functional
[9] = Anticoagulant activity of compound in respect to APTT in human poor platelet plasma (PPP) at 1077.7 nM concentration was measured by the Amelung coagulometer KC4A apparatus; type: functional
[10] = Anticoagulant activity of compound in respect to APTT in human poor platelet plasma (PPP) at 646.61 nM concentration was measured by the Amelung coagulometer KC4A apparatus; type: functional
[11] = Anticoagulant activity of compound in respect to APTT in human poor platelet plasma (PPP) at 418.91 nM concentration was measured by the Amelung coagulometer KC4A apparatus; type: functional
Homo sapiens = organism: Homo sapiens; test: Anticoagulant activity of compound in respect to APTT in human poor platelet plasma (PPP) at a concentration 41.89(nM) of was measured by the Amelung coagulometer KC4A apparatus; type: functional, cell-free
[12] = Anticoagulant activity of compound in respect to APTT in human poor platelet plasma (PPP) at a concentration 272.29(nM) of was measured by the Amelung coagulometer KC4A apparatus; type: functional
[13] = Anticoagulant activity of compound in respect to APTT in human poor platelet plasma (PPP) at a concentration 523.64(nM) of was measured by the Amelung coagulometer KC4A apparatus; type: functional
[14] = Anticoagulant activity of compound in respect to APTT in human poor platelet plasma (PPP) at a concentration 802.24(nM) of was measured by the Amelung coagulometer KC4A apparatus; type: functional
[15] = Anticoagulant activity of compound in respect to APTT in human poor platelet plasma (PPP) at 1338.96 nM concentration was measured by the Amelung coagulometer KC4A apparatus; type: functional
[16] = Anticoagulant activity of compound in respect to APTT in human poor platelet plasma (PPP) at 1562.12 nM concentration was measured by the Amelung coagulometer KC4A apparatus; type: functional
[17] = Anticoagulant activity of compound in respect to APTT in human poor platelet plasma (PPP) at 1785.28 nM concentration was measured by the Amelung coagulometer KC4A apparatus; type: functional
[18] = Anticoagulant activity of compound in respect to APTT in human poor platelet plasma (PPP) at 771 nM concentration was measured by the Amelung coagulometer KC4A apparatus; type: functional
[19] = Anticoagulant activity of compound in respect to APTT in human poor platelet plasma (PPP) at 1156.6 nM concentration was measured by the Amelung coagulometer KC4A apparatus; type: functional
[20] = Anticoagulant activity of compound in respect to APTT in human poor platelet plasma (PPP) at 528.94 nM concentration was measured by the Amelung coagulometer KC4A apparatus; type: functional
[21] = Anticoagulant activity of compound in respect to APTT in human poor platelet plasma (PPP) at 705.25 nM concentration was measured by the Amelung coagulometer KC4A apparatus; type: functional
[22] = Anticoagulant activity of compound in respect to APTT in human poor platelet plasma (PPP) at 881.56 nM concentration was measured by the Amelung coagulometer KC4A apparatus; type: functional
[23] = Anticoagulant activity of compound in respect to APTT in human poor platelet plasma (PPP) at 906.8 nM concentration was measured by the Amelung coagulometer KC4A apparatus; type: functional
[24] = Anticoagulant activity of compound in respect to APTT in human poor platelet plasma (PPP) at 1813.59 nM concentration was measured by the Amelung coagulometer KC4A apparatus; type: functional
[25] = Anticoagulant activity of compound in respect to APTT in human poor platelet plasma (PPP) at 2266.99 nM concentration was measured by the Amelung coagulometer KC4A apparatus; type: functional
[26] = Anticoagulant activity of compound in respect to APTT in human poor platelet plasma (PPP) at 2720.39 nM concentration was measured by the Amelung coagulometer KC4A apparatus; type: functional
[27] = Anticoagulant activity of compound in respect to APTT in human poor platelet plasma (PPP) at 2901.75 nM concentration was measured by the Amelung coagulometer KC4A apparatus; type: functional
[28] = Anticoagulant activity of compound in respect to APTT in human poor platelet plasma (PPP) at 2992.43 nM concentration was measured by the Amelung coagulometer KC4A apparatus; type: functional

Compound: CC(C)C[C@H](NC(=O)[C@H](CCCCN)NC(=O)[C@H](CCCN=C(N)N)NC(=O)[C@H](CCCCN)NC(=O)[C@@H]1CCCN1C(=O)[C@@H](N)CCCN)C(=O)N[C@H](C(=O)N1CCC[C@H]1C(=O)O)C(C)C (H-[Orn]PKRKLVP-OH) [listing 1 of 2 here]
- IC50 [1]: 1160 nM

Compound: H-PKRKLVP-NH2 [listing 1 of 2 here]
- IC50 [1]: 2900 nM

Compound: H-KPKRKLVP-OH
- APTT [2]: 6.7 s
- APTT [3]: 21.6 s
- APTT [4]: 50.9 s
- APTT [5]: 24.1 s
- APTT [6]: 122.8 s
- APTT [7]: 30 s
- IC50 [1]: 1120 nM

Compound: H-PKRKLVP-OH [listing 1 of 2 here]
- APTT [15]: 22.1 s
- APTT [16]: 31 s
- APTT [17]: 47.1 s

Compound: CC(C)C[C@H](NC(=O)[C@H](CCCCN)NC(=O)[C@H](CCCN=C(N)N)NC(=O)[C@H](CCCCN)NC(=O)[C@@H]1CCCN1C(=O)[C@@H](N)CCCN)C(=O)N[C@H](C(=O)N1CCC[C@H]1C(=O)O)C(C)C (H-[Orn]PKRKLVP-OH) [listing 2 of 2 here]
- APTT [18]: 22.2 s
- APTT [19]: 28.5 s

Compound: CC(C)C[C@H](NC(=O)[C@H](CCCCN)NC(=O)[C@H](CCCN=C(N)N)NC(=O)[C@H](CCCCN)NC(=O)[C@@H]1CCCN1C(=O)[C@@H](N)CCCN)C(=O)N[C@H](C(=O)N1CCC[C@H]1C(N)=O)C(C)C (H-[Orn]PKRKLVP-NH2) [listing 1 of 2 here]
- APTT [20]: 0.5 s
- APTT [21]: 29.3 s
- APTT [22]: 53.3 s

Compound: H-PKRKLVP-NH2 [listing 2 of 2 here]
- APTT [23]: 8.8 s
- APTT [24]: 18.6 s
- APTT [25]: 18.8 s
- APTT [26]: 25.5 s
- APTT [27]: 29.8 s
- APTT [28]: 32.4 s

The next lines start with results.

- IC50 [1]: 647 nM
Compound: H-KPKRKLVP-NH2
- APTT [8]: 8.9 s
- APTT [9]: 57.9 s
- APTT [10]: 28.9 s

- IC50 [1]: 802 nM
Compound: H-RPKLVP-OH
- APTT [11]: 5.5 s
- APTT (Homo sapiens): No activity
- APTT [12]: 3.8 s
- APTT [13]: 15.6 s
- APTT [14]: 62.4 s

- IC50 [1]: 705 nM
Compound: CC(C)C[C@H](NC(=O)[C@H](CCCCN)NC(=O)[C@H](CCCN=C(N)N)NC(=O)[C@H](CCCCN)NC(=O)[C@@H]1CCCN1C(=O)[C@@H](N)CCCN)C(=O)N[C@H](C(=O)N1CCC[C@H]1C(N)=O)C(C)C (H-[Orn]PKRKLVP-NH2) [listing 2 of 2 here]

- IC50 [1]: 1560 nM
Compound: H-PKRKLVP-OH [listing 2 of 2 here]
